From patent publication US12264156B2, “Compounds and pharmaceutical compositions thereof for the treatment of diseases” (GALAPAGOS NV, priority 2018, dated 2025)

Assays:
Assay type in all cases: biochemical
Conditions in all cases: ADP-Glo SIK kinase assay
[1] = molecular target: T1, SIK1 (Homo sapiens, UniProt P57059); experiment: ADP-Glo kinase assay, SIK1
T1 construct: purchased Carna Biosciences 02-131
Outline: (§1)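 ADP-Glo, RT throughout. Enz/substrate + ATP, 120 min; ADP-Glo reagent 40 min (ATP depletion); detection reagent 30 min; luminescence read. Neg ctrl 1% DMSO, pos ctrl 10 μM staurosporine, final concs.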

[2] = molecular target: T2, SIK3 (Homo sapiens, UniProt Q9Y2K2); experiment: ADP-Glo kinase assay, SIK3
T2 construct: purchased SignalChem S12-11G-100
Outline: as §1

[3] = molecular target: T3, SIK2 (Homo sapiens, UniProt Q9H0K1); experiment: ADP-Glo kinase assay, SIK2
T3 construct: purchased ThermoFisher Scientific PV4792
Outline: as §1

T1 sequence (P57059 whole entry): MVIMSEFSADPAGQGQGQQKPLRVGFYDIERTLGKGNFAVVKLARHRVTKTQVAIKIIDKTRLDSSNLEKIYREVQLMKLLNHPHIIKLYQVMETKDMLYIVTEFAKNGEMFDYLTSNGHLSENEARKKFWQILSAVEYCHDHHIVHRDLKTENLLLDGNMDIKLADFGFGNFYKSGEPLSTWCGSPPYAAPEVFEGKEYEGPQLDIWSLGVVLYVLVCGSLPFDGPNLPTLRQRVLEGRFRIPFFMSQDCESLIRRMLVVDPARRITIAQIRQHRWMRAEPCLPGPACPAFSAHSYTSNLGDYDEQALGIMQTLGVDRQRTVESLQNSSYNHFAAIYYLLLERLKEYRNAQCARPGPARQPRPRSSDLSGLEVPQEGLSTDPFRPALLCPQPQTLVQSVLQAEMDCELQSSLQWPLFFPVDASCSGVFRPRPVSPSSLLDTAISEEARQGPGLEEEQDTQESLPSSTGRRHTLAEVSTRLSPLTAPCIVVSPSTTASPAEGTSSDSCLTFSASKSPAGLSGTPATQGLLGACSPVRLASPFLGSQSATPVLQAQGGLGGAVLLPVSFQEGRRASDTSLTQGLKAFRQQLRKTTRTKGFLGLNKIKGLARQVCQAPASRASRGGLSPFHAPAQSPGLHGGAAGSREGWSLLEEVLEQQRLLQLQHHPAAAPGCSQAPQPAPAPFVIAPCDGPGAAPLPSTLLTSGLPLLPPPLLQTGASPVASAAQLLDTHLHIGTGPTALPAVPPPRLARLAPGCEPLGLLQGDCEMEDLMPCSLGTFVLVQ
T3 sequence (Q9H0K1 whole entry): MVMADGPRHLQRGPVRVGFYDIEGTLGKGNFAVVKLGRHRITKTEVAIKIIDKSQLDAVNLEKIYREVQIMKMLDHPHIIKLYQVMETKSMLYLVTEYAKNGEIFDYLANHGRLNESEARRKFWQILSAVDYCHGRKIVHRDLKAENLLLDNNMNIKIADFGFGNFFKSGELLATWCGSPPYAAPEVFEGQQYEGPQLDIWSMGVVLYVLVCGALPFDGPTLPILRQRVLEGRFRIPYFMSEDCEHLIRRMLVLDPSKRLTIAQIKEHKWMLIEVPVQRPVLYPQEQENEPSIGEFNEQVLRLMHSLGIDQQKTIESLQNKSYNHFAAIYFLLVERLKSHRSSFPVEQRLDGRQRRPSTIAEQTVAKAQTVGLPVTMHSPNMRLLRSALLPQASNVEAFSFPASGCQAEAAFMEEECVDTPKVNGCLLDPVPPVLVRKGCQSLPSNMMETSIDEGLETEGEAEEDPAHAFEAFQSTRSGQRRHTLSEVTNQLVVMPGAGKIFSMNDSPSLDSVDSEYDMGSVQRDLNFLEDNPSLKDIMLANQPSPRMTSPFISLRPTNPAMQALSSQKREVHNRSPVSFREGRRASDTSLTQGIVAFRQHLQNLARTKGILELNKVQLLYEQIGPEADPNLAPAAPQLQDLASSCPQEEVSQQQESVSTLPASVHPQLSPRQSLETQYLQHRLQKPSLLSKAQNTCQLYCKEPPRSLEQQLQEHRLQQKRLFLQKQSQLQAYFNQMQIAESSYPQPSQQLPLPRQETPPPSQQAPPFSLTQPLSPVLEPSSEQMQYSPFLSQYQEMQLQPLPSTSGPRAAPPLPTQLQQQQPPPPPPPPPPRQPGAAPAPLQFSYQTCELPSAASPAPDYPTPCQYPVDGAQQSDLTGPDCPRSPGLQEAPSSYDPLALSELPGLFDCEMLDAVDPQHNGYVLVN
T2 sequence (Q9Y2K2 whole entry): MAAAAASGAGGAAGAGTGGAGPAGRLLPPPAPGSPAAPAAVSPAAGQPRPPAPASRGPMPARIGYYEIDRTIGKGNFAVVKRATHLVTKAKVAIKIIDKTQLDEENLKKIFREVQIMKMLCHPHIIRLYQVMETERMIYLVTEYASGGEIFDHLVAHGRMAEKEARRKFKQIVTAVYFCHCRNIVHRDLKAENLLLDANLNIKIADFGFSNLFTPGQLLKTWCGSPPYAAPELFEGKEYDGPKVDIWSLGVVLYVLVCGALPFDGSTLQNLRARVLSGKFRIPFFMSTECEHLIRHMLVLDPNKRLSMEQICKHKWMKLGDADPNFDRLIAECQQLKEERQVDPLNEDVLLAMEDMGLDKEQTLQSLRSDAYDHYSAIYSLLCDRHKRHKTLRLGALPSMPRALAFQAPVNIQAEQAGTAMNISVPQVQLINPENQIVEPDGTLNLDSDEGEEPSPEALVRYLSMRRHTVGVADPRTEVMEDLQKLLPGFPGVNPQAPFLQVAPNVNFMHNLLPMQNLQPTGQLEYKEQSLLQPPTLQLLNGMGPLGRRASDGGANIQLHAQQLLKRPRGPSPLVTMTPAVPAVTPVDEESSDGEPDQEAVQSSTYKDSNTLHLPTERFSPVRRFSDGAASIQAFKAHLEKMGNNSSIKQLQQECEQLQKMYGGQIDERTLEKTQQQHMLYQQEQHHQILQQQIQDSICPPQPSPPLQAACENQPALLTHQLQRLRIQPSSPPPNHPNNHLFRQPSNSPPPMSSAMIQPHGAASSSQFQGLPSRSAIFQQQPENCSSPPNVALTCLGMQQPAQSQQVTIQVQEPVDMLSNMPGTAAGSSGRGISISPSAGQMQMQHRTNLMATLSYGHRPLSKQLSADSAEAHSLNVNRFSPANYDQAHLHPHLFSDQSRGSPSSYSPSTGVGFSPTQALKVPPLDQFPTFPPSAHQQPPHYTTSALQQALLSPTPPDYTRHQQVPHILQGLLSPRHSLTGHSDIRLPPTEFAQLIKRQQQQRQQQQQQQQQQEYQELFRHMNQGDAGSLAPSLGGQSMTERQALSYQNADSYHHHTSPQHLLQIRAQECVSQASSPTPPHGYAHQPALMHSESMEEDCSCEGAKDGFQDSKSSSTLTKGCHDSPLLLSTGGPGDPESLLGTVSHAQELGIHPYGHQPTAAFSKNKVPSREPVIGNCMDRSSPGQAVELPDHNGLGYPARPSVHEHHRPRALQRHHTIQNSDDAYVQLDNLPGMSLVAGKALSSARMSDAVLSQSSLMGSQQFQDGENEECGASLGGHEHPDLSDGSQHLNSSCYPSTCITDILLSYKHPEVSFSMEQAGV

Compound	IC50 [1]	IC50 [2]	IC50 [3]
CNCCOc1ccn2c(-c3cc4c(c(OC)c3)C(=O)N(CC(F)(F)F)CC4)cnc2c1 [compound 185, 8-methoxy-6-[7-[2-(methylamino)ethoxy]imidazo[1,2-a]pyridin-3-yl]-2-(2,2,2-trifluoroethyl)-3,4-dihydroisoquinolin-1-one]	100 to 500 nM	0.01 to 10 nM	0.01 to 10 nM
COc1cc(-c2cnc3cc(OC[C@@H]4CCCN(C5COC5)C4)ccn23)cc(OC(F)F)c1C(=O)NC1CC1 [compound 339, N-cyclopropyl-2-(difluoromethoxy)-6-methoxy-4-[7-[[(3R)-1-(oxetan-3-yl)-3-piperidyl]methoxy]imidazo[1,2-a]pyridin-3-yl]benzamide]	10 to 100 nM	0.01 to 10 nM	0.01 to 10 nM
COc1cc(-c2cnc3cc(OC4CCOCC4)ccn23)cc(OC(F)F)c1C(=O)NC1CC1 [compound 1, N-cyclopropyl-2-(difluoromethoxy)-6-methoxy-4-(7-tetrahydropyran-4-yloxyimidazo[1,2-a]pyridin-3-yl)benzamide]	100 to 500 nM	0.01 to 10 nM	100 to 500 nM
COc1cc(-c2cnc3cc(OCCN4CCS(=O)(=O)CC4)ccn23)cc(OC(F)F)c1C(=O)NC1CC1 [compound 22, N-cyclopropyl-2-(difluoromethoxy)-4-[7-[2-(1,1-dioxo-1,4-thiazinan-4-yl)ethoxy]imidazo[1,2-a]pyridin-3-yl]-6-methoxy-benzamide]	10 to 100 nM	0.01 to 10 nM	0.01 to 10 nM
COc1cc(-c2cnc3cc(OCCN4CCOC(C#N)C4)ccn23)cc(OC(F)F)c1C(=O)NC1CC1 (stereo not drawn) [compound 213, 4-[7-[2-(2-cyanomorpholin-4-yl)ethoxy]imidazo[1,2-a]pyridin-3-yl]-N-cyclopropyl-2-(difluoromethoxy)-6-methoxy-benzamide]	10 to 100 nM	0.01 to 10 nM	0.01 to 10 nM
COc1cc(-c2cnc3cc(OC4CCOCC4)ccn23)cc(OC)c1C(=O)NCC(F)(F)F [Cpd 4, 2,6-dimethoxy-4-(7-tetrahydropyran-4-yloxyimidazo[1,2-a]pyridin-3-yl)-N-(2,2,2-trifluoroethyl) benzamide]	> 500 nM	10 to 100 nM	100 to 500 nM
COc1cc(-c2cnc3cc(OC[C@@H](N)C4CCCCC4)ccn23)cc(OC(F)F)c1C(=O)NC1CC1 [compound 133, 4-[7-[(2S)-2-amino-2-cyclohexyl-ethoxy]imidazo[1,2-a]pyridin-3-yl]-N-cyclopropyl-2-(difluoromethoxy)-6-methoxy-benzamide]	10 to 100 nM	0.01 to 10 nM	0.01 to 10 nM
CCN1CCc2cc(-c3cnc4cc(OCCN(C)C)ccn34)cc(OC)c2C1=O [compound 53, 6-[7-[2-(dimethylamino)ethoxy]imidazo[1,2-a]pyridin-3-yl]-2-ethyl-8-methoxy-3,4-dihydroisoquinolin-1-one]	> 500 nM	10 to 100 nM	10 to 100 nM
COc1cc(-c2cnc3cc(OCC4CCCO4)ccn23)cc(OC(F)F)c1C(=O)NC1CC1 (stereo not drawn) [compound 93, N-cyclopropyl-2-(difluoromethoxy)-6-methoxy-4-[7-(tetrahydrofuran-2-ylmethoxy)imidazo[1,2-a]pyridin-3-yl]benzamide]	10 to 100 nM	0.01 to 10 nM	0.01 to 10 nM
COc1cc(-c2cnc3cc(OCC4COCCO4)ccn23)cc(OC(F)F)c1C(=O)NC1CC1 (stereo not drawn) [compound 98, N-cyclopropyl-2-(difluoromethoxy)-4-[7-(1,4-dioxan-2-ylmethoxy)imidazo[1,2-a]pyridin-3-yl]-6-methoxy-benzamide]	10 to 100 nM	0.01 to 10 nM	0.01 to 10 nM
COc1cc(-c2cnc3cc(OCC(N)C4CCOC4)ccn23)cc(OC(F)F)c1C(=O)NC1CC1 (stereo not drawn) [compound 134, 4-[7-(2-amino-2-tetrahydrofuran-3-yl-ethoxy)imidazo[1,2-a]pyridin-3-yl]-N-cyclopropyl-2-(difluoromethoxy)-6-methoxy-benzamide]	10 to 100 nM	0.01 to 10 nM	0.01 to 10 nM
COc1cc(-c2cnc3cc(OCCN4C5CCC4COC5)ccn23)cc2c1C(=O)N(CC(F)(F)F)CC2 [compound 246, 8-methoxy-6-[7-[2-(3-oxa-8-azabicyclo[3.2.1]octan-8-yl)ethoxy]imidazo[1,2-a]pyridin-3-yl]-2-(2,2,2-trifluoroethyl)-3,4-dihydroisoquinolin-1-one]	100 to 500 nM	10 to 100 nM	0.01 to 10 nM
COc1cc(-c2cnc3cc(OC4CCN(C)C4)ccn23)cc(OC(F)F)c1C(=O)NC1CC1 (stereo not drawn) [compound 15, N-cyclopropyl-2-(difluoromethoxy)-6-methoxy-4-[7-(1-methylpyrrolidin-3-yl)oxyimidazo[1,2-a]pyridin-3-yl]benzamide]	> 500 nM	10 to 100 nM	10 to 100 nM
COc1cc(-c2cnc3cc(OCCN4CCN(CCO)CC4)ccn23)cc(OC(F)F)c1C(=O)NC1CC1 [compound 308, N-cyclopropyl-2-(difluoromethoxy)-4-[7-[2-[4-(2-hydroxyethyl)piperazin-1-yl]ethoxy]imidazo[1,2-a]pyridin-3-yl]-6-methoxy-benzamide]	10 to 100 nM	0.01 to 10 nM	0.01 to 10 nM
COC(=O)NCC(F)(F)COc1ccn2c(-c3cc(OC)c(C(=O)NC4CC4)c(OC(F)F)c3)cnc2c1 [Cpd 365, methyl N-[3-[3-[4-(cyclopropylcarbamoyl)-3-(difluoromethoxy)-5-methoxy-phenyl]imidazo[1,2-a]pyridin-7-yl]oxy-2,2-difluoro-propyl]carbamate]	10 to 100 nM	0.01 to 10 nM	0.01 to 10 nM
CCOC(=O)C1CCCN(CCOc2ccn3c(-c4cc(OC)c(C(=O)NC5CC5)c(OC(F)F)c4)cnc3c2)C1 (stereo not drawn) [compound 392, ethyl 1-[2-[3-[4-(cyclopropylcarbamoyl)-3-(difluoromethoxy)-5-methoxy-phenyl]imidazo[1,2-a]pyridin-7-yl]oxyethyl]piperidine-3-carboxylate]	10 to 100 nM	0.01 to 10 nM	0.01 to 10 nM
COc1cc(-c2cnc3cc(OCCN4CCOC(C(F)(F)F)C4)ccn23)cc(OC(F)F)c1C(=O)NC1CC1 (stereo not drawn) [compound 179, N-cyclopropyl-2-(difluoromethoxy)-6-methoxy-4-[7-[2-[2-(trifluoromethyl)morpholin-4-yl]ethoxy]imidazo[1,2-a]pyridin-3-yl]benzamide]	10 to 100 nM	0.01 to 10 nM	0.01 to 10 nM
COc1cc(-c2cnc3cc(OCC4CC4(F)F)ccn23)cc(OC(F)F)c1C(=O)NC1CC1 (stereo not drawn) [compound 42, N-cyclopropyl-4-[7-[(2,2-difluorocyclopropyl)methoxy]imidazo[1,2-a]pyridin-3-yl]-2-(difluoromethoxy)-6-methoxy-benzamide]	0.01 to 10 nM	0.01 to 10 nM	0.01 to 10 nM
COc1cc(-c2cnc3cc(OCC4CCCOC4)ccn23)cc(OC(F)F)c1C(=O)NC1CC1 (stereo not drawn) [compound 59, N-cyclopropyl-2-(difluoromethoxy)-6-methoxy-4-[7-(tetrahydropyran-3-ylmethoxy)imidazo[1,2-a]pyridin-3-yl]benzamide]	0.01 to 10 nM	0.01 to 10 nM	0.01 to 10 nM
COc1cc(-c2cnc3cc(OCCCN4CCOCC45COC5)ccn23)cc(OC(F)F)c1C(=O)NC1CC1 [compound 296, N-cyclopropyl-2-(difluoromethoxy)-4-[7-[3-(2,8-dioxa-5-azaspiro[3.5]nonan-5-yl)propoxy]imidazo[1,2-a]pyridin-3-yl]-6-methoxy-benzamide]	10 to 100 nM	0.01 to 10 nM	0.01 to 10 nM
COc1cc(-c2cnc3cc(OC4CCCN(C)C4)ccn23)cc(OC)c1C(=O)NCC(F)(F)F (stereo not drawn) [Cpd 5, 2,6-dimethoxy-4-[7-[(1-methyl-3-piperidyl)oxy]imidazo[1,2-a]pyridin-3-yl]-N-(2,2,2-trifluoroethyl)benzamide]	> 500 nM	10 to 100 nM	100 to 500 nM
COc1cc(-c2cnc3cc(OCCN(C)CC#N)ccn23)cc(OC(F)F)c1C(=O)NC1CC1 [compound 215, 4-[7-[2-[cyanomethyl(methyl)amino]ethoxy]imidazo[1,2-a]pyridin-3-yl]-N-cyclopropyl-2-(difluoromethoxy)-6-methoxy-benzamide]	10 to 100 nM	0.01 to 10 nM	0.01 to 10 nM
COc1cc(-c2cnc3cc(OCCN4CCOCC4C)ccn23)cc(OC(F)F)c1C(=O)NC1CC1 (stereo not drawn) [compound 232, N-cyclopropyl-2-(difluoromethoxy)-6-methoxy-4-[7-[2-(3-methylmorpholin-4-yl)ethoxy]imidazo [1,2-a]pyridin-3-yl]benzamide]	10 to 100 nM	0.01 to 10 nM	0.01 to 10 nM
COc1cc(-c2cnc3cc(OC4CCC(F)(F)CC4)ccn23)cc(OC(F)F)c1C(=O)NC1CC1 [compound 77, N-cyclopropyl-4-[7-(4,4-difluorocyclohexoxy)imidazo[1,2-a]pyridin-3-yl]-2-(difluoromethoxy)-6-methoxy-benzamide]	100 to 500 nM	0.01 to 10 nM	10 to 100 nM
COc1cc(-c2cnc3cc(OCCN(C)C)ccn23)cc(F)c1C(=O)NC1CC1 [compound 51, N-cyclopropyl-4-[7-[2-(dimethylamino)ethoxy]imidazo[1,2-a]pyridin-3-yl]-2-fluoro-6-methoxy-benzamide]	> 500 nM	10 to 100 nM	10 to 100 nM
COc1cc(-c2cnc3cc(OCC4CCOC4)ccn23)cc(OC(F)F)c1C(=O)NC1CC1 (stereo not drawn) [compound 92, N-cyclopropyl-2-(difluoromethoxy)-6-methoxy-4-[7-(tetrahydrofuran-3-ylmethoxy)imidazo[1,2-a]pyridin-3-yl]benzamide]	10 to 100 nM	0.01 to 10 nM	0.01 to 10 nM
